Results on two molecules are retold here after patent publication US10213470B2, “Method for treating spinocerebellar ataxias” (NATIONAL TAIWAN NORMAL UNIVERSITY, priority 2015, dated 2019).

For assay [1], the system named is ATXN3/Q75 aggregation in 293 ATXN3/Q75-GFP cells. The experiment in a line: ATXN3/Q75 aggregation analysis by high-content analysis in 293 ATXN3/Q75-GFP cells. The format is cell-based, Human. The conditions noted are these: at 100 nM; 8 h pre-treatment, then doxycycline and oxaliplatin 6 days. The protocol:
(§1) Human 293 ATXN3/Q75-GFP cells were cultured in Dulbecco's modified Eagle's medium (DMEM) containing 10% fetal bovine serum (FBS), 5 μg/mL blasticidin, and 100 μg/mL hygromycin (InvivoGen). Human neuroblastoma SH-SY5Y cells (ATCC No. CRL-2266) were cultured in DMEM F12 supplemented with 10% FBS. Mouse RAW 264.7 macrophages and BV-2 microglia were cultured in DMEM containing 10% FBS. Cells were all cultured in a 37° C. incubator containing 5% CO2.
293 ATXN3/Q75-GFP cells were cultured in 96-well (2×10^4/well) plates for 24 h and treated with different concentrations of suberoylanilide hydroxamic acid (SAHA, Cayman Chemical) (100 nM), Paeonia lactiflora, Glycyrrhiza uralensis, or Shao Yao Kan Tsao Tang (SK Tang) (0.01-10 μg/mL) for 8 h. Next, doxycycline (10 μg/mL, BD) and oxaliplatin (5 μM, Sigma) were added for 6 days. Cells were then stained with Hoechst 33342 (0.1 μg/mL, Sigma-Aldrich). Aggregation was then analyzed by high-content analysis (HCA) system (ImageXpressMICRO, Molecular Devices). The histone deacetylase inhibitor SAHA, known to reduce SDS-insoluble polyQ aggregates, was included for comparison.
To normalize data, the relative aggregation level in untreated cells is set as 100%. […] Good aggregation-inhibitory potential can be seen from Paeonia lactiflora (75-78% at 1-10 μg/mL), Glycyrrhiza uralensis (73-85% at 0.01-1 μg/mL), and SK Tang (79-84% at 0.01-10 μg/mL). […]

The subject of the next assay is IL-6. The experiment in a line: IL-6 secretion in LPS-stimulated RAW 264.7 macrophages (ELISA). It is filed as cell-based, Mouse. The conditions noted are these: 50 μM, 8 h pre-treatment, LPS 1 μg/mL 20 h. On the procedure: as §1
(§2) The anti-inflammatory activity of SK Tang was examined using LPS-stimulated RAW 264.7 macrophage and BV-2 microglia. RAW 264.7 cells (10^6) were cultured in 6-well plates for 20 h and pre-treated with celecoxib, which is a nonsteroidal anti-inflammatory drug (named as Cele. in FIGS. 4A-4D) (50 μM) or SK Tang (0.5-2 mg/mL) for 8 h. Next, cells were stimulated by LPS (1 μg/mL) for 20 h. LPS-induced secretions of NO, TNF-α, IL-1β, and IL-6 in RAW 264.7 cells were then determined using Griess reagent or ELISA assay.
(§3) To normalize data, the relative NO/TNF-α/IL-1β/IL-6 level in LPS-stimulated cells is set as 100%. As shown in FIGS. 4A-4D, the exposure of RAW 264.7 cells to LPS results in significant secretions of NO, TNF-α, IL-1β, and IL-6 after 24 h incubation (1-12% vs. 100%, P<0.001). […]

The next assay relates to TNF-α. The experiment in a line: TNF-α secretion in LPS-stimulated RAW 264.7 macrophages (ELISA). The conditions noted are these: 50 μM, 8 h pre-treatment, LPS 1 μg/mL 20 h. The format is cell-based, Mouse. The protocol: as §1, §2, §3
For orientation: An ELISA detects its analyte on a solid surface through an enzyme-linked reagent.

For another assay, the system named is IL-1β. The experiment in a line: IL-1β secretion in LPS-stimulated RAW 264.7 macrophages (ELISA). The format is cell-based, Mouse. To be noted: 50 μM, 8 h pre-treatment, LPS 1 μg/mL 20 h. The protocol:
as §1, §2, §3

The subject of another assay is NO. The experiment in a line: NO secretion in LPS-stimulated RAW 264.7 macrophages (Griess reagent). The format is cell-based, Mouse. To be noted: 50 μM, 8 h pre-treatment, LPS 1 μg/mL 20 h. The protocol: as §1, §2, §3
In general terms: Nitrite, measured by Griess reagent, commonly stands in for NO production.

In the case of `O=C(CCCCCCC(=O)Nc1ccccc1)NO` [SAHA, suberoylanilide hydroxamic acid], in assay [1], the “ATXN3/Q75 aggregation relative to untreated cells (100%)” value was determined as 85%.

In the case of `Cc1ccc(-c2cc(C(F)(F)F)nn2-c2ccc(S(N)(=O)=O)cc2)cc1` [celecoxib], the “IL-6 level relative to LPS-stimulated cells (100%)” value in the assay with IL-6 was found to be 29%. Moreover, the “TNF-α level relative to LPS-stimulated cells (100%)” value with TNF-α worked out at 23%. Moreover, the “IL-1β level relative to LPS-stimulated cells (100%)” value with IL-1β is reported as 20%. Also, the “NO level relative to LPS-stimulated cells (100%)” value with NO is listed as 39%.
